Reference: BindingDB's records for doi:10.3109/14756360903179393 (University of Orleans, 2010)

Columns and labels:
[1] = target: 5-hydroxytryptamine receptor 7 (Homo sapiens, UniProt P34969); experiment: Radioligand Binding Assay
Procedure: (§1) 1H nuclear magnetic resonance (NMR) and 13C NMR spectra were recorded on a Bruker Avance DPX250 spectrometer (250.131 MHz), in CDCl3 and using tetramethylsilane asinternal standard; multiplicities were determined by the DEPT 135 sequence, and chemical shifts are reported in parts per million (ppm). Coupling constants are reported in units of hertz (Hz) if applicable. Infrared (IR) spectra were recorded on a PerkinElmer Paragon 1000 PC Fourier transform infrared (FTIR) spectrometer using NaCl films or KBr pellets. Mass spectra (MS) were recorded on a PerkinElmerSCIEX AOI 300 spectrometer. Flash chromatography was performed on Merck […] (230-400 mesh) silica gel under nitrogen pressure. Thin layer chromatography (TLC)was carried out on Merck silica gel 60 F254 precoated plates. Visualization was made with ultraviolet light at 254 nm.

[2] = target: T1, 5-hydroxytryptamine receptor 1A (Rattus norvegicus, UniProt P19327); experiment: Radioligand Binding Assay
T1 sequence (P19327 whole entry): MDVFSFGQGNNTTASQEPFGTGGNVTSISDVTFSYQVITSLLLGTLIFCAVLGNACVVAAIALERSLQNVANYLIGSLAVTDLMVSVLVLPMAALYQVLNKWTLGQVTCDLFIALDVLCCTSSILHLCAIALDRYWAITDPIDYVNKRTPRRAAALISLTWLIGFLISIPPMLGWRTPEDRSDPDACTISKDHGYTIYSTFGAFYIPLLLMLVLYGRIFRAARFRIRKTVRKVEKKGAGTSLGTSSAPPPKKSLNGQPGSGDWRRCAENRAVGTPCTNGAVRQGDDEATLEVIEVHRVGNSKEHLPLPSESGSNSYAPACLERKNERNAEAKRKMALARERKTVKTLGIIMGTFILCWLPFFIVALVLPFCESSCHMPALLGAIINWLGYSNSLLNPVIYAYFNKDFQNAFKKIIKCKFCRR
Procedure: as §1

Sequence of 5-hydroxytryptamine receptor 7 (P34969 whole entry): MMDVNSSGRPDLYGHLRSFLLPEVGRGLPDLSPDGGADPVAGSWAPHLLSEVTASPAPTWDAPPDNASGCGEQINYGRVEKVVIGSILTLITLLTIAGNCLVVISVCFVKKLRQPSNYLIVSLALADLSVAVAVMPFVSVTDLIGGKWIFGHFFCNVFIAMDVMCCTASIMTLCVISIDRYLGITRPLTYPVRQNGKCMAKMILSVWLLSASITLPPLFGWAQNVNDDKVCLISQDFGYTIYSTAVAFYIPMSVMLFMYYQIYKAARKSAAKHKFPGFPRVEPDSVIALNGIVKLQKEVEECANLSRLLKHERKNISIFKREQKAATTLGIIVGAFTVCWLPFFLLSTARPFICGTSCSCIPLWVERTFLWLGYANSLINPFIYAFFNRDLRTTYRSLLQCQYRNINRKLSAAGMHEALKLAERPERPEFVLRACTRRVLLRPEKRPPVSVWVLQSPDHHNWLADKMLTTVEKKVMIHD

| Structure (SMILES) | Ki [1] [µM] | Ki [2] [µM] |
| --- | --- | --- |
| O=c1[nH]c2ccccc2n1CCN1CCCN2CCCCC2C1 (stereo unspecified) [1-[2-(Octahydropyrido[1,2-a][1,4]diazepin-2-yl)ethyl]-1,3-dihydrobenzo-imidazol-2-one (8)] | 23.6 | – |
| c1cnc2c(c1)ccn2CCN1CCCN2CCCCC2C1 (stereo unspecified) [2-(2-Pyrrolo[2,3-b]pyridin-1-ylethyl)decahydropyrido[1,2-a][1,4]diazepine (5)] | 14 | 24.5 |
| Brc1ccc2ccn(CCN3CCCN4CCCCC4C3)c2n1 (stereo unspecified) [2-[2-(6-Bromopyrrolo[2,3-b]pyridin-1-yl)ethyl]decahydropyrido[1,2-a][1,4]diazepine (10)] | 0.492 | 14.9 |
| Clc1ccc2ccn(CCN3CCCN4CCCCC4C3)c2n1 (stereo unspecified) [2-[2-(6-Chloropyrrolo[2,3-b]pyridin-1-yl)ethyl]decahydropyrido[1,2-a][1,4]diazepine (11)] | 0.16 | 15 |
| Clc1nccc2ccn(CCN3CCCN4CCCCC4C3)c12 (stereo unspecified) [2-[2-(7-Chloropyrrolo[2,3-c]pyridin-1-yl)ethyl]decahydropyrido[1,2-a][1,4]diazepine (6)] | 5.31 | 16 |
| c1cc2ccn(CCN3CCCN4CCCCC4C3)c2cn1 (stereo unspecified) [2-[(2-Pyrrolo[2,3-c]pyridin-1-yl)ethyl]decahydropyrido[1,2-a][1,4]diazepine (7)] | > 10 | > 10 |
